This is an account of results in US20240140944A1, “NOVEL NAPHTHYRIDINONE DERIVATIVE HAVING INHIBITORY ACTIVITY AGAINST ECTONUCLEOTIDE PYROPHOSPHATASE-PHOSPHODIESTERASE AND USE THEREOF” (TXINNO BIOSCIENCE INC., priority 2020, published 2024).

pIC50: −log10 of the molar value. Counter-ions that a name gives are not always drawn.

Assay [1] addresses T1, human recombinant ENPP1 enzymes (Homo sapiens, UniProt P22413).
T1 construct: purchased R & D systems
T1 sequence (P22413 1-925): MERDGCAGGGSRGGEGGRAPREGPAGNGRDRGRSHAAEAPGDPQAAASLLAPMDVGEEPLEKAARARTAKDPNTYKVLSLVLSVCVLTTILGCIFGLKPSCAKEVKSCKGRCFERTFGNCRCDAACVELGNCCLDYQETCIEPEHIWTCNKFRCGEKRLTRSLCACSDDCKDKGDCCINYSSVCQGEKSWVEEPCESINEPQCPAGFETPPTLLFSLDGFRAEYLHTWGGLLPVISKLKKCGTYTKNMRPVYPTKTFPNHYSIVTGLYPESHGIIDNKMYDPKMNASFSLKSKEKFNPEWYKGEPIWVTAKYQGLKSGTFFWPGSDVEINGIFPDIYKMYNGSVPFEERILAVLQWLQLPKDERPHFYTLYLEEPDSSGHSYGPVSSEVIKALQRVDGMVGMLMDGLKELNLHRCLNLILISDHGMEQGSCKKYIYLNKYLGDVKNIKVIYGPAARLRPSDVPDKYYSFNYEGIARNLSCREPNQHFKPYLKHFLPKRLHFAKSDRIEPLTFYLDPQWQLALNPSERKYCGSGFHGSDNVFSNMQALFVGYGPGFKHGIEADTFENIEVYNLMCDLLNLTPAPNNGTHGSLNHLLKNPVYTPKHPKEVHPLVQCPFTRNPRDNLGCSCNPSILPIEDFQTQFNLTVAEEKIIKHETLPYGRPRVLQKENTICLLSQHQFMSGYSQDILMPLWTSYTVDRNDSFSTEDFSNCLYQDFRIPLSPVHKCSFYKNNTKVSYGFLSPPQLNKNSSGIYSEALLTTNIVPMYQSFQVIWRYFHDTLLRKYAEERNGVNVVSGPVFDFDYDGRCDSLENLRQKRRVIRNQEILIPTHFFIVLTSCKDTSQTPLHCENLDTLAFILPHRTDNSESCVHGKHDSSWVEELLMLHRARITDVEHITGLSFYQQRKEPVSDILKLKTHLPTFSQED
The assay can be described thus: ENPP1 Enzyme Assay with cGAMP Substrate (AMP-Glo). It counts as biochemical. Particulars: human recombinant ENPP1 3 ng/reaction, cGAMP 5 μM, 37° C. 90 minutes, average of two or more tests; read-out: Enzymatic activity IC50. Put shortly: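 Human recombinant ENPP1 (3 ng/reaction) preincubated 5–10 min at RT with inhibitor, then reacted with 5 µM cGAMP for 90 min at 37 °C in 50 mM Tris pH 8.5, 250 mM NaCl, 0.5 mM CaCl2, 1 µM ZnCl2, 1% DMSO. AMP produced read by AMP-Glo luminescence; IC50 from 3-parameter fit, averaged over ≥2 runs.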

Assay [2] deals with interferon regulatory factor 3 (IRF3) in HCT116-Dual cells. The experiment in a line: HCT116-Dual Cell Luciferase Assay (ISG54 promoter, IRF3 activity). The class given is cell-based. As to conditions: ENPP1 inhibitor usually 10 μM plus cGAMP 10 μM, 48 hours, Lucia luciferase. An excerpt: HCT116-Dual™ cells express genes encoding luciferase secreted under the control of the interferon-stimulated gene 54 (ISG54) promoter along with five interferon-stimulated response elements. The HCT116-Dual™ cell line was used to measure and monitor the activity of interferon regulatory factor 3 (IRF3), which induces production of type I interferon and relates to downstream signaling, and Lucia secreted in the culture medium was used to generate luminescence in a luciferase reaction.
HCT116-Dual™ cells were cultured at 2×10^4 cells/well (93.4 μL) in a 96-well plate for one day in a DMEM medium containing 10% FBS and 25 mM HEPES (pH 7.2-7.5). The cells were treated with 3.3 μL of ENPP1 inhibitor (usually 10 μM) and then 3.3 μL of cGAMP (10 μM) to set the final volume to 100 μL (The final fraction of DMSO was 0.1%). The cells treated with ENPP1 inhibitor and cGAMP were cultured at 37° C. for 48 hours and 50 μL of Quanti-Luc reaction solution was added to 20 μL of cell culture medium to measure luciferase activity. The increase in interferon regulatory factor 3 (IRF3) by the compound compared to cGAMP was determined as fold.

As for `Cl.NCc1ccc(-c2ccnc3[nH]c(=O)ccc23)c(F)c1` [Example 11, 5-(4-(aminomethyl)-2-fluorophenyl)-1,8-naphthyridin-2(1H)-one hydrochloride], in assay [1], the pIC50 was more than 6.00. For the same compound, the “Cellular activity: increase in IRF3 by the compound compared to cGAMP, as fold” value (shortened to “Cellular activity: increase in IRF3 … as fold”) in assay [2] is “A (>2)”.

In the case of `Cl.NCc1ccc(-c2ccnc3[nH]c(=O)ccc23)cc1F` [Example 12, 5-(4-(aminomethyl)-3-fluorophenyl)-1,8-naphthyridin-2(1H)-one hydrochloride], the pIC50 in assay [1] was more than 6.00. Besides, in assay [2], the “Cellular activity: increase in IRF3 … as fold” value is given as “A (>2)”.

In the case of `CC(NS(N)(=O)=O)c1ccc(-c2ccnc3[nH]c(=O)ccc23)cc1.Cl` (stereo not drawn) [Example 45, N-(1-(4-(7-oxo-7,8-dihydro-1,8-naphthyridin-4-yl)phenyl)ethyl)sulfamide hydrochloride], in assay [1], the pIC50 is more than 6.00. In assay [2], the “Cellular activity: increase in IRF3 … as fold” value is on record as “B (1< Fold <2)”.

Turning to `CN(Cc1ccc(-c2ccnc3[nH]c(=O)ccc23)cc1F)S(N)(=O)=O.Cl` [Example 52, N-(2-fluoro-4-(7-oxo-7,8-dihydro-1,8-naphthyridin-4-yl)benzyl)-N-methylsulfamide hydrochloride], the pIC50 in assay [1] was more than 6.00. Further, in assay [2], the “Cellular activity: increase in IRF3 … as fold” value is “B (1< Fold <2)”.

For `Cl.NS(=O)(=O)N(Cc1ccc(-c2ccnc3[nH]c(=O)ccc23)c(F)c1)C1CC1` [Example 58, N-cyclopropyl-N-(3-fluoro-4-(7-oxo-7,8-dihydro-1,8-naphthyridin-4-yl)benzyl)sulfamide hydrochloride], in assay [1], the pIC50 was more than 6.00. The “Cellular activity: increase in IRF3 … as fold” value in assay [2] is on record as “B (1< Fold <2)”.

Turning to `NS(=O)(=O)N1CCc2ccc(-c3ccnc4[nH]c(=O)ccc34)cc2C1` [Example 65, 7-(7-oxo-7,8-dihydro-1,8-naphthyridin-4-yl)dihydroisoquinoline-2(1H)-sulfamide hydrochloride], the pIC50 in assay [1] is more than 6.00. The “Cellular activity: increase in IRF3 … as fold” value in assay [2] was “B (1< Fold <2)”.

For `Cl.O=c1ccc2c(-c3cc4c(cc3F)CCNC4)ccnc2[nH]1` [Example 28, 5-(6-fluoro-1,2,3,4-tetrahydroisoquinolin-7-yl)-1,8-naphthyridin-2(1H)-one hydrochloride], in assay [1], the pIC50 was more than 6.00. For the same compound, in assay [2], the “Cellular activity: increase in IRF3 … as fold” value is “B (1< Fold <2)”.

On to `NS(=O)(=O)NCc1cccc(-c2ccnc3c2CCC(=O)N3)c1` [Example 140, N-(3-(7-oxo-5,6,7,8-tetrahydro-1,8-naphthyridin-4-yl)benzyl)sulfamide], for which, in assay [1], the pIC50 was more than 6.00. Further, in assay [2], the “Cellular activity: increase in IRF3 … as fold” value was “B (1< Fold <2)”.

For the compound `C[C@@H](c1ccc(-c2ccnc3[nH]c(=O)ccc23)cc1)N(C)S(N)(=O)=O` [Example 61, (S)-(N-methyl-N-(1-(4-(7-oxo-7,8-dihydro-1,8-naphthyridin-4-yl)phenyl)ethyl)sulfamide hydrochloride], the pIC50 in assay [1] is more than 6.00. For the same compound, the “Cellular activity: increase in IRF3 … as fold” value in assay [2] is listed as “B (1< Fold <2)”.

Take `NCCc1ccc(F)c(Nc2ccnc3[nH]c(=O)ccc23)c1` [Example 79, 5-((5-(2-aminoethyl)-2-fluorophenyl)amino)-1,8-naphthyridin-2(1H)-one dihydrochloride]: the pIC50 in assay [1] was 5.00 to 6.00. The “Cellular activity: increase in IRF3 … as fold” value in assay [2] is “B (1< Fold <2)”.

For `Cl.NCc1ccc(-c2ccnc3[nH]c(=O)ccc23)cc1` [Example 10, 5-(4-(aminomethyl)phenyl)-1,8-naphthyridin-2(1H)-one hydrochloride], the pIC50 in assay [1] was more than 6.00. Moreover, the “Cellular activity: increase in IRF3 … as fold” value in assay [2] is given as “B (1< Fold <2)”.

Take `CNCc1ccc(-c2ccnc3[nH]c(=O)ccc23)cc1F.Cl` [Example 23, 5-(3-fluoro-4-((methylamino)methyl)phenyl)-1,8-naphthyridin-2(1H)-one hydrochloride]: the pIC50 in assay [1] is 5.00 to 6.00. For the same compound, in assay [2], the “Cellular activity: increase in IRF3 … as fold” value was “B (1< Fold <2)”.

One may read the pIC50 as −log10 of the IC50, conventionally taken in molar units.
